Measurements published in ChEMBL document CHEMBL1240530, “Inhalation by design: novel ultra-long-acting β(2)-adrenoreceptor agonists for inhaled once-daily treatment of asthma and chronic obstructive pulmonary disease that utilize a sulfonamide agonist headgroup” (J Med Chem, 2010).

How the values were obtained:
Homo sapiens = organism: Homo sapiens; experiment: Selectivity ratio of EC50 for human recombinant beta-1 adrenergic receptor to EC50 for human recombinant beta2 adrenergic receptor
[1] = target: Beta-2 adrenergic receptor (Homo sapiens, UniProt P07550); experiment: Agonist activity at human recombinant beta2 adrenergic receptor expressed in CHO cells assessed as elevation in cAMP level after 1 hr by flashplate method; type: functional, cell-based
[2] = Bronchodilatory activity in Dunkin-Hartley guinea pig trachea assessed as time taken for electrical filed stimulation-induced constrictive response to recover by 50%; type: functional, Cavia porcellus
[3] = Distribution coefficient, log D of the compound; type: physicochemical; conditions: octanol/water
[4] = Plasma protein binding in iv dosed rat; type: ADME, organism-based; conditions: read-out: PPB (converted)
Oryctolagus cuniculus = organism: Oryctolagus cuniculus; experiment: Toxicity in rabbit Adelta-fibre firing model assessed as induction of postinhalation cough at 50 to 1000 ug, it; type: organism-based; conditions: in vivo, inhaled_or_intranasal
[5] = Apparent permeability from apical to basolateral side of human Caco-2 cells; type: ADME, cell-based
Canis familiaris [6] = experiment: Cardiotoxicity in itr dosed Beagle dog assessed as induction of trachycardia after 7.5 hrs; type: toxicity, organism-based, Canis lupus familiaris; conditions: in vivo, inhaled_or_intranasal
[7] = Tmax in rat at 100 ug, it; type: ADME, organism-based; conditions: in vivo, inhaled or intranasal
Liver microsomes [8] = experiment: Intrinsic clearance in human liver microsome in presence of CYP3A4 inhibitor ketoconazole; type: ADME
Canis familiaris [9] = organism: Canis familiaris
Description: Bronchodilatory activity in itr dosed Beagle dog assessed as inhibition of acetylcholine-induced bronchoconstriction administered 5 doses of compound at cumulative 1 hr intervals

Canis familiaris [10] = experiment: Bronchodilatory activity in itr dosed Beagle dog assessed as duration of blockade of acetylcholine-induced bronchoconstriction at 10 times ED50 administered as single dose prior to acetylcholine challenge
[11] = Metabolic stability in rat bile assessed as compound remaining; type: ADME, tissue-based
[12] = Total clearance in iv dosed rat; type: ADME, organism-based; conditions: in vivo
Canis familiaris [13] = experiment: Bronchodilatory activity in itr dosed Beagle dog assessed as duration of blockade of acetylcholine-induced bronchoconstriction at ED50 administered as single dose prior to acetylcholine challenge
[14] = Oral bioavailability in rat; type: ADME, organism-based; conditions: in vivo
in vivo = conditions: beagle, dog, inhaled or intranasal
Description: Therapeutic index, ratio of dose inducing cardiovascular side effects to ED50 for inhibition of acetylcholine-induced bronchoconstriction in itr dosed Beagle dog

[15] = Half life in iv dosed rat; type: ADME, organism-based; conditions: in vivo
Liver microsomes [16] = experiment: Metabolic stability in human liver microsome; type: ADME
Liver microsomes [17] = experiment: Intrinsic clearance in human liver microsome; type: ADME
Liver [18] = experiment: Intrinsic clearance in rat liver; type: ADME, Microsome; conditions: microsomes
[19] = Apparent permeability from basolateral to apical side of human Caco-2 cells; type: ADME, cell-based
Liver [20] = experiment: Unbound intrinsic clearance in rat liver; type: ADME, Microsome; conditions: microsomes
[21] = Volume of distribution in iv dosed rat; type: ADME, organism-based; conditions: in vivo
[22] = target: Voltage-gated inwardly rectifying potassium channel KCNH2 (Homo sapiens, UniProt Q12809); experiment: Inhibition of human ERG by patch clamp technique
[23] = Cmax in rat at 100 ug, it; type: ADME, organism-based; parameters: dose 100 ug; conditions: in vivo, inhaled or intranasal
[24] = Dissociation constant, pKa of the compound; type: physicochemical
Canis familiaris [25] = experiment: Cardiotoxicity in itr dosed Beagle dog assessed as increase in heart rate after 7.5 hrs; type: toxicity, organism-based, Canis lupus familiaris; conditions: in vivo, inhaled_or_intranasal

Beta-2 adrenergic receptor, sequence (P07550 whole entry): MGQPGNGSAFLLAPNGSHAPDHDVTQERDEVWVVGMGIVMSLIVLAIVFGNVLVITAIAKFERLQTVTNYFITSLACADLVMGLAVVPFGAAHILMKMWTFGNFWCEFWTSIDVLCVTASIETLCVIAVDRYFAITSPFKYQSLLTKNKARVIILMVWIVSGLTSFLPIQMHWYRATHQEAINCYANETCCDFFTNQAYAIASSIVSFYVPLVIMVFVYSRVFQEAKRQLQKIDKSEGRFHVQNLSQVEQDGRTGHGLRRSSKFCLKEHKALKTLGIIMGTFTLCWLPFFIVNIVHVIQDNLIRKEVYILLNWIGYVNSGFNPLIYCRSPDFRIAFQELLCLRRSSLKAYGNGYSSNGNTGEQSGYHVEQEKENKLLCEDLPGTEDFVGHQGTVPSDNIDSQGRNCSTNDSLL
Voltage-gated inwardly rectifying potassium channel KCNH2, sequence (Q12809 whole entry): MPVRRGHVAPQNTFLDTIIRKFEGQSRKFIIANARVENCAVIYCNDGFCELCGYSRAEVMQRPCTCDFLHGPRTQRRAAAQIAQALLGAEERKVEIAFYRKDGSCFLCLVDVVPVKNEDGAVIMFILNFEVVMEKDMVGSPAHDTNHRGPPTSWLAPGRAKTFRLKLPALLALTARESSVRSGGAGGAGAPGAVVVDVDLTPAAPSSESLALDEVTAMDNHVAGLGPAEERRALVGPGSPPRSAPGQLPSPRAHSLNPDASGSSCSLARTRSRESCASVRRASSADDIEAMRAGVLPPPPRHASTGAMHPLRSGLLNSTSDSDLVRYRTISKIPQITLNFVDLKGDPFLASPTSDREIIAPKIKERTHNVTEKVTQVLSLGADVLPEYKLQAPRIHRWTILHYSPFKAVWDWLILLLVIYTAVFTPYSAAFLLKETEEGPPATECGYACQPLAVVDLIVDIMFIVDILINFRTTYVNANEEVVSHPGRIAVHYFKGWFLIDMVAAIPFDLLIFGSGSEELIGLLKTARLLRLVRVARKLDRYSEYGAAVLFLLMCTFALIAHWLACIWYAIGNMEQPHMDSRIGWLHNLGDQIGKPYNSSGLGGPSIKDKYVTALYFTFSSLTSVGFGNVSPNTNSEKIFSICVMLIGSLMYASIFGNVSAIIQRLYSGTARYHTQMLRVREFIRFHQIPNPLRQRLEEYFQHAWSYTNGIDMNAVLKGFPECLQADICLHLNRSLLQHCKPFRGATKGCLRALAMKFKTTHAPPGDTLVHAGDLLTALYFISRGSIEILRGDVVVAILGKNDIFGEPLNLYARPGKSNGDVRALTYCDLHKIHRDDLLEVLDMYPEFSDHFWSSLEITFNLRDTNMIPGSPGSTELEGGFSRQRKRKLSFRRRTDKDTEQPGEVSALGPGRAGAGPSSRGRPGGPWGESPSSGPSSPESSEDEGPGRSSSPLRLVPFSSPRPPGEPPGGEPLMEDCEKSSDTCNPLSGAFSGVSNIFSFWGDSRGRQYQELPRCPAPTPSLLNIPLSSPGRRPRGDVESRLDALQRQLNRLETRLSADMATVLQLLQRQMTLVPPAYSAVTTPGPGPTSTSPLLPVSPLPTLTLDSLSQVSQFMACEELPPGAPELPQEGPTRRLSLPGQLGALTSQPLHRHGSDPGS

SMILES: CC(C)(Cc1cccc(CC(=O)NCc2ccc(Cl)c(Cl)c2)c1)NC[C@H](O)c1ccc(O)c(NS(C)(=O)=O)c1
- Ratio EC50 (Homo sapiens): 1700
- EC50 [1]: 0.066 nM
- Time [2]: 8.34 h
- logD [3]: 2.4

SMILES: CC(C)(Cc1cccc(CC(=O)NCc2cccc(-c3ccc(O)cc3)c2)c1)NC[C@H](O)c1ccc(O)c(NS(C)(=O)=O)c1 [PF-00610355]
- fraction unbound [4]: 0.05
- Ratio EC50 (Homo sapiens): 220
- Activity (Oryctolagus cuniculus): Non-toxic
- Papp A→B [5]: < 1 ×10⁻⁶ cm/s
- Activity (Canis familiaris [6]): Non-toxic
- Tmax [7]: 0.5 h
- CL (Liver microsomes [8]): < 0.01 mL/min/kg
- ED50 (Canis familiaris [9]): 0.1 µg
- Time (Canis familiaris [10]): >8 h
- Stability [11]: 6%
- clearance [12]: 103 mL/min/kg
- Time (Canis familiaris [13]): >8 h
- bioavailability [14]: < 5%
- selectivity ratio (in vivo): ≥ 10
- half-life [15]: 3.5 h
- Stability (Liver microsomes [16]): 80%
- CL (Liver microsomes [17]): 0.054 mL/min/kg
- Time [2]: 6.23 h
- CL (Liver [18]): 0.033 mL/min/kg
- Papp B→A [19]: 13 ×10⁻⁶ cm/s
- CL free (Liver [20]): > 10000 mL/min/kg
- logD [3]: 1.9
- Vd [21]: 31 L/kg
- IC50 [22]: > 10000 nM
- Cmax [23]: 1.3 nM

SMILES: CC(C)(Cc1cccc(CC(=O)NCc2ccc(O)cc2Cl)c1)NC[C@H](O)c1ccc(O)c(NS(C)(=O)=O)c1
- Ratio EC50 (Homo sapiens): 7300
- EC50 [1]: 0.02 nM
- Time [2]: 6.8 h
- logD [3]: 1.2

SMILES: CC(C)(Cc1cccc(CC(=O)NCc2ccccc2)c1)NC[C@H](O)c1ccc(O)c(NS(C)(=O)=O)c1
- Ratio EC50 (Homo sapiens): 7500
- EC50 [1]: 0.023 nM

SMILES: COc1ccccc1CNC(=O)Cc1cccc(C[C@@H](C)NC[C@H](O)c2ccc(O)c(NS(C)(=O)=O)c2)c1
- Ratio EC50 (Homo sapiens): 5600
- EC50 [1]: 0.04 nM
- Time [2]: 4.22 h
- logD [3]: 1.2

SMILES: CC(C)(Cc1cccc(CC(=O)NCc2cc(Cl)cc(Cl)c2O)c1)NC[C@H](O)c1ccc(O)c(NS(C)(=O)=O)c1
- Ratio EC50 (Homo sapiens): 560
- EC50 [1]: 0.13 nM
- Time [2]: 8.02 h
- logD [3]: 2

SMILES: CC(C)(Cc1cccc(CC(=O)NCc2cc(Cl)c(O)c(Cl)c2)c1)NC[C@H](O)c1ccc(O)c(NS(C)(=O)=O)c1
- Ratio EC50 (Homo sapiens): 1600
- pKa [24]: 6.69
- EC50 [1]: 0.091 nM
- Time [2]: 3.66 h
- logD [3]: 0.8

SMILES: OCc1cc(C(O)CNCCCCCCOCCCCc2ccccc2)ccc1O (stereo not given) [SALMETEROL]
- Activity (Canis familiaris [25]): Toxic
- ED50 (Canis familiaris [9]): 1 µg
- Time (Canis familiaris [10]): <7 h
- Time (Canis familiaris [13]): 4 h
- Time [2]: 6.97 h

SMILES: Cc1cc(O)cc(C)c1CNC(=O)Cc1cccc(CC(C)(C)NC[C@H](O)c2ccc(O)c(NS(C)(=O)=O)c2)c1
- Ratio EC50 (Homo sapiens): 3700
- pKa [24]: 9.93
- EC50 [1]: 0.045 nM
- Time [2]: 4.59 h
- logD [3]: 1.1

SMILES: CC(C)(Cc1cccc(CC(=O)NCc2cc(Cl)ccc2O)c1)NC[C@H](O)c1ccc(O)c(NS(C)(=O)=O)c1
- Ratio EC50 (Homo sapiens): 7000
- pKa [24]: 9.22
- EC50 [1]: 0.17 nM
- Time [2]: 6 h
- logD [3]: 1.6

SMILES: C[C@H](Cc1cccc(CC(=O)NCc2ccc(Cl)c(Cl)c2)c1)NC[C@H](O)c1ccc(O)c(CO)c1
- Ratio EC50 (Homo sapiens): 5300
- Time [2]: 9 h

SMILES: C[C@H](Cc1cccc(CC(=O)NCCc2ccccc2)c1)NC[C@H](O)c1ccc(O)c(NS(C)(=O)=O)c1
- Ratio EC50 (Homo sapiens): 1800
- EC50 [1]: 0.04 nM

SMILES: CC(C)(Cc1cccc(CC(=O)NCc2ccc3cc(O)ccc3c2)c1)NC[C@H](O)c1ccc(O)c(NS(C)(=O)=O)c1
- Ratio EC50 (Homo sapiens): 730
- EC50 [1]: 0.21 nM
- Time [2]: 6.17 h
- logD [3]: 1.3

SMILES: CC(C)(Cc1cccc(CC(=O)NCc2ccc(-c3ccc(O)cc3)cc2)c1)NC[C@H](O)c1ccc(O)c(NS(C)(=O)=O)c1
- Ratio EC50 (Homo sapiens): 1300
- Time [2]: 6.57 h

SMILES: Cc1ccc(CNC(=O)Cc2cccc(C[C@@H](C)NC[C@H](O)c3ccc(O)c(NS(C)(=O)=O)c3)c2)cc1C
- Ratio EC50 (Homo sapiens): 3700
- EC50 [1]: 0.056 nM
- Time [2]: 6.74 h
- logD [3]: 2

SMILES: COc1cccc(OC)c1CNC(=O)c1cc2cc(C[C@@H](C)NC[C@H](O)c3ccc(O)c(CO)c3)ccc2[nH]1
- ED50 (Canis familiaris [9]): 1 µg
- Time (Canis familiaris [10]): >8 h
- Time (Canis familiaris [13]): >8 h
- selectivity ratio (in vivo): 10

SMILES: CCOc1ccccc1CNC(=O)Cc1cccc(C[C@@H](C)NC[C@H](O)c2ccc(O)c(NS(C)(=O)=O)c2)c1
- Ratio EC50 (Homo sapiens): 3300
- EC50 [1]: 0.048 nM
- Time [2]: 6.2 h
- logD [3]: 1.6

SMILES: C[C@H](Cc1cccc(CC(=O)NCC2CCCCC2)c1)NC[C@H](O)c1ccc(O)c(NS(C)(=O)=O)c1
- Ratio EC50 (Homo sapiens): 3100
- EC50 [1]: 0.032 nM
- Time [2]: 5.79 h

SMILES: CCN(Cc1ccc(O)cc1Cl)C(=O)Cc1cccc(CC(C)(C)NC[C@H](O)c2ccc(O)c(NS(C)(=O)=O)c2)c1
- Ratio EC50 (Homo sapiens): 210
- EC50 [1]: 0.37 nM
- Time [2]: 8.49 h
- logD [3]: 1.6

SMILES: C[C@H](Cc1cccc(CC(=O)NCCCc2ccccc2)c1)NC[C@H](O)c1ccc(O)c(NS(C)(=O)=O)c1
- Ratio EC50 (Homo sapiens): 3400
- EC50 [1]: 0.042 nM
- Time [2]: 5.85 h
- logD [3]: 1.7

SMILES: C[C@H](Cc1cccc(CC(=O)NCc2ccccc2)c1)NC[C@H](O)c1ccc(O)c(NS(C)(=O)=O)c1
- Ratio EC50 (Homo sapiens): 16000
- EC50 [1]: 0.027 nM
- Time [2]: 3.24 h
- logD [3]: 1

SMILES: C[C@H](Cc1cccc(CC(=O)NC23CC4CC(CC(C4)C2)C3)c1)NC[C@H](O)c1ccc(O)c(CO)c1
- Ratio EC50 (Homo sapiens): 1300
- EC50 [1]: 0.064 nM
- Time [2]: 6.35 h

SMILES: CC(C)(Cc1ccccc1)NCC(O)c1ccc(O)c(NS(C)(=O)=O)c1 (stereo not given) [ZINTEROL]
- Time [2]: 3.4 h
- logD [3]: 0.6
